Results published in a compilation of properties of binary mixtures (doi:10.1016/j.molliq.2017.03.027).

Assay: xn = mol fraction of the nth substance listed
Settings: 100 kPa

CO + CCCC[n+]1ccn(C)c1.O=S(=O)([N-]S(=O)(=O)C(F)(F)F)C(F)(F)F
x1 = 1
Settings | speed of sound [m/s] | viscosity [mPa·s]
298.15 K | 1103.3 | 0.55
303.15 K | 1086.9 | 0.51
308.15 K | 1070.6 | 0.48
313.15 K | 1054.5 | 0.45
318.15 K | 1038.5 | 0.42
323.15 K | 1022.5 | 0.41

CS(C)=O + CCCC[n+]1ccn(C)c1.O=S(=O)([N-]S(=O)(=O)C(F)(F)F)C(F)(F)F
Settings | speed of sound [m/s] | viscosity [mPa·s]
298.15 K, x1 = 0.0951 | 1232.7 | 40.36
298.15 K, x1 = 0.2074 | 1239.8 | 33.72
298.15 K, x1 = 0.2885 | 1246 | 28.98
298.15 K, x1 = 0.4003 | 1257.9 | 22.18
298.15 K, x1 = 0.5026 | 1269.8 | 17.18
298.15 K, x1 = 0.7066 | 1299.3 | 8.91
298.15 K, x1 = 0.8039 | 1329 | 5.97
298.15 K, x1 = 0.9012 | 1384.8 | 3.51
298.15 K, x1 = 1 | 1490.5 | 2.03
303.15 K, x1 = 0.0951 | 1221.2 | 32.94
303.15 K, x1 = 0.2074 | 1228.1 | 27.62
303.15 K, x1 = 0.4003 | 1245.8 | 18.3
303.15 K, x1 = 0.5903 | 1267.6 | 11.04
303.15 K, x1 = 0.7066 | 1286.2 | 8.01
303.15 K, x1 = 0.8039 | 1315.2 | 5.17
303.15 K, x1 = 0.9012 | 1369.9 | 3.15
303.15 K, x1 = 1 | 1473.6 | 1.84
308.15 K, x1 = 0.0951 | 1209.8 | 26.98
308.15 K, x1 = 0.2074 | 1216.8 | 22.9
308.15 K, x1 = 0.2885 | 1222.7 | 19.59
308.15 K, x1 = 0.4003 | 1233.9 | 15.42
308.15 K, x1 = 0.5026 | 1245.1 | 11.71
308.15 K, x1 = 0.7066 | 1273.2 | 6.73
308.15 K, x1 = 0.8039 | 1301.4 | 4.62
308.15 K, x1 = 0.9012 | 1355 | 2.84
313.15 K, x1 = 0.2885 | 1211.1 | 17.04
313.15 K, x1 = 0.4003 | 1221.8 | 13.35
313.15 K, x1 = 0.5026 | 1232.9 | 10.62
313.15 K, x1 = 0.7066 | 1260.2 | 5.96
313.15 K, x1 = 0.8039 | 1287.7 | 4.17
313.15 K, x1 = 0.9012 | 1340.2 | 2.57
318.15 K, x1 = 0.0951 | 1187.5 | 19.53
318.15 K, x1 = 0.2074 | 1194.2 | 16.67
318.15 K, x1 = 0.2885 | 1199.7 | 14.57
318.15 K, x1 = 0.4003 | 1210.1 | 11.47
318.15 K, x1 = 0.5026 | 1220.8 | 8.84
318.15 K, x1 = 0.5903 | 1229.8 | 7.4
318.15 K, x1 = 0.7066 | 1247.2 | 5.63
318.15 K, x1 = 0.8039 | 1274.4 | 3.71
318.15 K, x1 = 0.9012 | 1325.4 | 2.33
318.15 K, x1 = 1 | 1423.3 | 1.41
323.15 K, x1 = 0.0951 | 1176.3 | 16.81
323.15 K, x1 = 0.2074 | 1182.9 | 14.37
323.15 K, x1 = 0.2885 | 1188.1 | 12.56
323.15 K, x1 = 0.4003 | 1198.2 | 9.96
323.15 K, x1 = 0.5026 | 1208.5 | 7.69
323.15 K, x1 = 0.5903 | 1217.3 | 6.39
323.15 K, x1 = 0.7066 | 1233.9 | 5.01
323.15 K, x1 = 0.8039 | 1260.4 | 3.32
323.15 K, x1 = 1 | 1406.7 | 1.3
